This note sets out measurements from the NIST ThermoML archive (doi:10.1016/j.jct.2019.01.027).

For orientation: vapor or sublimation pressure means the equilibrium pressure above the liquid or solid.

For the data set the following is noted: Liquid, Ebulliometric method (Recirculating still).

Numbers after ± are expanded uncertainties.

For the molecule `Cc1ccc(C)cc1` [1,4-dimethylbenzene], where the note is “411.45 K”, the “vapor or sublimation pressure” value stood at 101.3 ± 1.2 kPa.

`CC(=O)OCC(C)C` [2-methylpropyl ethanoate]: where the note is “389.55 K”, the “vapor or sublimation pressure” value is 101.3 ± 1.2 kPa.

As for `CCCCOC(=O)CC` [butyl propanoate], the “vapor or sublimation pressure” value (418.35 K) is 101.3 ± 1.2 kPa.

In the case of `COC(=O)OC` [dimethyl carbonate], the “vapor or sublimation pressure” value (363.35 K) amounted to 101.3 ± 1.2 kPa.

Regarding `CCO` [ethanol], the “vapor or sublimation pressure” value (351.45 K) worked out at 101.3 ± 1.2 kPa.
